Measured values as given in patent US10221179B2, “Substituted pyrazoloquinazolinones and pyrroloquinazolinones as allosteric modulators of group II metabotropic glutamate receptors” (DOMAIN THERAPEUTICS, priority 2014, dated 2019).
Read-outs that look alike come from different tables or passages of the source.

What was measured:
[1] = target: T1, human mGluR2 (hmGluR2) (Homo sapiens, UniProt Q14416); assay: Ca++ functional assay, human mGluR2 transiently over-expressed in HEK-293 cells (agonist and negative allosteric modulator modes); assay type: cell-based; details: glutamate at EC80, intracellular calcium (Fluo4AM)
T1 construct: expressed in transfected cells; host or cells: HEK-293 cells, transient co-transfection by electroporation
In short: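 HEK-293 cells transiently co-transfected with hmGluR2, a chimeric G protein and two glutamate transporters; Fluo4-AM calcium fluorescence (485/525 nm) on FLIPR. Agonist mode judged against buffer, NAM mode against EC80 glutamate, 3 min recording; 20-concentration curves over 6 logs, variable-slope fit for IC50, duplicate, two independent runs.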

[2] = target: T2, human mGluR3 (hmGluR3) (Homo sapiens, UniProt Q14832); assay: Ca++ functional assay, human mGluR3 transiently over-expressed in HEK-293 cells (agonist and negative allosteric modulator modes); assay type: cell-based; details: glutamate at EC80, intracellular calcium (Fluo4AM)
T2 construct: expressed in transfected cells; host or cells: HEK-293 cells, transient co-transfection by electroporation
Method: Example 127: Human mGluR2 and mGluR3 Evaluation Using Ca^++ Functional Assay
Examples of the present invention were tested successively for their agonist and negative allosteric modulator activities on human mGluR2 (hmGluR2) and mGluR3 (hmGluR3) transiently over-expressed in HEK-293 cells. Compounds exert agonist activity if, by themselves in absence of glutamate, they are able to activate hmGluR2 or hmGluR3; and they exert negative allosteric modulator activity if they decrease the action of glutamate (which is employed at its EC80 concentration).
Cell Culture and Transfection […]
Receptor activity is detected by changes in intracellular calcium measured using the fluorescent Ca^2+ sensitive dye, Fluo4AM (Molecular Probes).
On the day of the assay, culture medium is aspirated and replaced during 3 hours by medium without serum supplemented with 1% Glutamax, 1% Penicillin/Streptomycin and 1% non-essential amino acids. […] Addition of compounds and intracellular Ca^2+ measurements (excitation 485 nm, emission 525 nm) are performed by the fluorescence microplate reader FLIPRTetra (Molecular Devices).
Agonist and negative allosteric modulator activities of compounds are consecutively evaluated on the same cell plate. […] Then, cells are stimulated by an EC80 glutamate concentration and fluorescence is recorded for additional 3 minutes. […]

[3] = read-out: IC50 for human mGluR2 (negative allosteric modulator activity)
[4] = read-out: hmGluR2 negative allosteric modulator activity IC50

T1 sequence (Q14416 19-872): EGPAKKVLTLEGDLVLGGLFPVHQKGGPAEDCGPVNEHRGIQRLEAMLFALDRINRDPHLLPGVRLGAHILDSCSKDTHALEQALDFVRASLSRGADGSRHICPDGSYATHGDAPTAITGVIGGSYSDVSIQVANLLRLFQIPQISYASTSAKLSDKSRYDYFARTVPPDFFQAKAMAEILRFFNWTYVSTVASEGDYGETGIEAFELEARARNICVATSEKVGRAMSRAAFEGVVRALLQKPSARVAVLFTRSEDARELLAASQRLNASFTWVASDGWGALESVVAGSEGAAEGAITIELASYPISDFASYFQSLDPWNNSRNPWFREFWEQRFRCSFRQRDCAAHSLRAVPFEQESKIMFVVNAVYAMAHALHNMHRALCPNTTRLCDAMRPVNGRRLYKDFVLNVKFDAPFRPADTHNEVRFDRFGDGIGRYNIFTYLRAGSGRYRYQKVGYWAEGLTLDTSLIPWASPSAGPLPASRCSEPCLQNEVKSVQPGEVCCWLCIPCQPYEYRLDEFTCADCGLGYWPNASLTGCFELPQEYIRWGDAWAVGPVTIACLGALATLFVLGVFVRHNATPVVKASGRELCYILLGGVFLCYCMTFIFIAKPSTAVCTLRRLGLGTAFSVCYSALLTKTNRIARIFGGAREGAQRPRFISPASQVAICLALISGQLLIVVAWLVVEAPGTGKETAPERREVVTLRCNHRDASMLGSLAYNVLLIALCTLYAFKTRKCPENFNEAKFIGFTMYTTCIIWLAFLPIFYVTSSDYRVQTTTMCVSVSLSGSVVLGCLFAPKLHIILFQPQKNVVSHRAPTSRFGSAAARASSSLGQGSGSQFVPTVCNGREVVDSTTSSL
T2 sequence (Q14832 23-879): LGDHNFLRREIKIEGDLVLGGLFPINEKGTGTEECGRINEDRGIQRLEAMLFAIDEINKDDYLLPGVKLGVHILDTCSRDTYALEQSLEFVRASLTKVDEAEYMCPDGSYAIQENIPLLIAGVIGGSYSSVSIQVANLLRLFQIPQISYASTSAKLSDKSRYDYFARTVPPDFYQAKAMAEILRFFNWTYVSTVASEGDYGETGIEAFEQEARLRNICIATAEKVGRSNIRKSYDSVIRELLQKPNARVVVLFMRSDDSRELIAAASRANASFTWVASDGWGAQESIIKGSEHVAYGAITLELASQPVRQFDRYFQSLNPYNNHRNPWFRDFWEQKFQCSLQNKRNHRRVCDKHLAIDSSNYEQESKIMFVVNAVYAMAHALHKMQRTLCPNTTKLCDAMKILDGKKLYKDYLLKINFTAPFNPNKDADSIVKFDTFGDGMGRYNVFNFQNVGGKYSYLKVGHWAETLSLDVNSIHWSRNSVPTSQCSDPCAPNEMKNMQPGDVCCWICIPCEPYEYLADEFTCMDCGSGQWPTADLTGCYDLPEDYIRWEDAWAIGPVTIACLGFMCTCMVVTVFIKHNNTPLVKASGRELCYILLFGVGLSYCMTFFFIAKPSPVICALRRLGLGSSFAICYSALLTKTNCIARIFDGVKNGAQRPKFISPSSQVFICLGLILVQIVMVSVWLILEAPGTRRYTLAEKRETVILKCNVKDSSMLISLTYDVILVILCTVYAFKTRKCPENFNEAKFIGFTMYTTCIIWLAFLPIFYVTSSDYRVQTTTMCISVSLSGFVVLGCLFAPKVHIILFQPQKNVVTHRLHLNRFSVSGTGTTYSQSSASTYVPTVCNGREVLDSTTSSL

Structure (SMILES)	IC50 [1, 3]	IC50 [1, 4]	IC50 [2]	melting point
Cn1c(=O)c2ccccc2n2nc(-c3ccnc(Cl)c3)cc12 [Example 1, 2-(2-Chloro-pyridin-4-yl)-4-methyl-4H-pyrazolo[1,5-a]quinazolin-5-one]	< 100 nM	< 1000 nM	> 1000 nM	
[2H]C([2H])([2H])n1c(=O)c2ccccc2n2nc(-c3ccnc(C(C)(F)F)c3)cc12 [Example 33, 2-[2-(1,1-Difluoro-ethyl)-pyridin-4-yl]-4-methyl(D3)-4H-pyrazolo[1,5-a]quinazolin-5-one]		< 1000 nM		198 to 205 °C
CCCc1cc(-c2cc3n(C)c(=O)c4ccccc4n3n2)ccn1.Cl [Example 4, 2-(2-propyl-pyridin-4-yl)-4-methyl-4H-pyrazolo[1,5-a]quinazolin-5-one]		< 1000 nM		> 250 °C
Cl.Cn1c(=O)c2ccccc2n2nc(-c3ccnc(C4CCC4)c3)cc12 [Example 6, 2-(2-cyclobutyl-pyridin-4-yl)-4-methyl-4H-pyrazolo[1,5-a]quinazolin-5-one]		< 1000 nM		236 to 244 °C
Cn1c(=O)c2ccccc2n2nc(-c3ccnc(C#N)c3)cc12 [Example 12, 4-(4-Methyl-5-oxo-4,5-dihydro-pyrazolo[1,5-a]quinazolin-2-yl)-pyridine-2-carbonitrile]		< 1000 nM		> 250 °C
Cl.Cn1c(=O)c2ccccc2n2nc(-c3ccnc(C4CC4)c3)cc12 [Example 5, 2-(2-Cyclopropyl-pyridin-4-yl)-4-methyl-4H-pyrazolo[1,5-a]quinazolin-5-one]		< 1000 nM		248 to 251 °C
C=Cc1cc(-c2cc3n(C)c(=O)c4ccccc4n3n2)ccn1 [Example 9, 4-Methyl-2-(2-vinyl-pyridin-4-yl)-4H-pyrazolo[1,5-a]quinazolin-5-one]	< 100 nM	< 1000 nM	> 1000 nM	
Cn1c(=O)c2ccccc2n2nc(-c3ccnc(C(F)F)c3)cc12 [Example 31, 4-Methyl-2-(2-difluoromethyl-pyridin-4-yl)-4H-pyrazolo[1,5-a]quinazolin-5-one]		< 1000 nM		192 to 196 °C
COc1cc(-c2cc3n(C)c(=O)c4ccccc4n3n2)ccn1 [Example 14, 2-(2-Methoxy-pyridin-4-yl)-4-methyl-4H-pyrazolo[1,5-a]quinazolin-5-one]		< 1000 nM		> 250 °C
CCc1cc(-c2cc3n(C)c(=O)c4ccccc4n3n2)ccn1.Cl [Example 3, 2-(2-Ethyl-pyridin-4-yl)-4-methyl-4H-pyrazolo[1,5-a]quinazolin-5-one]		< 1000 nM		> 250 °C
Cn1c(=O)c2ccccc2n2nc(-c3ccnc(C(F)(F)F)c3)cc12 [Example 26, 4-Methyl-2-(2-trifluoromethyl-pyridin-4-yl)-4H-pyrazolo[1,5-a]quinazolin-5-one]		< 1000 nM		232 to 244 °C

Next, values leading:

IC50 [1, 3]	IC50 [1, 4]	IC50 [2]	melting point	Structure (SMILES)
	< 1000 nM		> 250 °C	Cn1c(=O)c2ccc(N3CC(O)C3)cc2n2nc(-c3ccnc(C(F)(F)F)c3)cc12 [Example 68, 8-(3-Hydroxy-azetidin-1-yl)-4-methyl-2-(2-trifluoromethyl-pyridin-4-yl)-4H-pyrazolo[1,5-a]quinazolin-5-one]
	< 1000 nM		> 250 °C	[2H]C([2H])([2H])Nc1ccc2c(c1)c(=O)n(C)c1cc(-c3ccnc(C(F)(F)F)c3)nn21 [Example 41, 4-Methyl-7-methyl(D3)amino-2-(2-trifluoromethyl-pyridin-4-yl)-4H-pyrazolo[1,5-a]quinazolin-5-one]
	< 1000 nM		> 250 °C	Cn1c(=O)c2ccc(F)cc2n2nc(-c3ccnc(C(F)(F)F)c3)cc12 [Example 55, 8-Fluoro-4-methyl-2-(2-trifluoromethyl-pyridin-4-yl)-4H-pyrazolo[1,5-a]quinazolin-5-one]
	< 1000 nM		> 250 °C	CNc1ccc2c(c1)c(=O)n(C)c1cc(-c3ccnc(C(F)(F)F)c3)nn21 [Example 40, 4-Methyl-7-methylamino-2-(2-trifluoromethyl-pyridin-4-yl)-4H-pyrazolo[1,5-a]quinazolin-5-one]
	< 1000 nM		> 250 °C	Cn1c(=O)c2cc(F)ccc2n2nc(-c3ccnc(C(F)(F)F)c3)cc12 [Example 38]
	< 1000 nM		> 250 °C	Cn1c(=O)c2ccc(C(=O)N3CCCC3)cc2n2nc(-c3ccnc(C(F)(F)F)c3)cc12 [Example 82, 4-Methyl-8-(pyrrolidine-1-carbonyl)-2-(2-trifluoromethyl-pyridin-4-yl)-4H-pyrazolo[1,5-a]quinazolin-5-one]
